One data set concerns human whole blood. Kind of data set: Inhibition of platelet aggregation (method of Born, collagen instead of ADP as pro-aggregatory agent; pA2 by Arunlakshana and Schild). The note with it: tested at a concentration of 2 pg/ml. The format is cell-based. From the text:
As indicated above, our tests have shown that compounds of formula (1) inhibit blood platelet aggregation and/or have bronchodilatatory activity. The test we have used for bronchodilatation is as described by K.M. Lulich, et al in British Journal of Pharmacology 58, 71-79, (1976) except guinea-pig lung is used instead of cat lung. The test for inhibition of platelet aggregation is as described by G.V. Born in Nature 194, 927-929 (1962) except collagen is used instead of ADP as the pro-aggregatory agent.
The following compounds were tested at a concentration of 2 pg/ml for their ability to inhibit the aggregation of human whole blood according to the method of G V Born in Nature 194, 927-929 (1962) except collagen was used instead of ADP as the pro-aggregatory agent. pA2 values were determined using the standard procedures of Arunlakshana and Schild in Br J Pharmac Chemother, 14, 48-58 (1959): […]

Another data set has as its system dogs. Kind of data set: Toxicity, oral administration to dogs. The format is in vivo. The note with it: given orally to dogs at a dose of 1 mg/kg. From the text: The compounds are in general non-toxic at therapeutically useful doses.
Another data set deals with guinea-pig lung. As to the kind of experiment: Potential bronchodilatation (method of Lulich et al., guinea-pig lung instead of cat lung; pA2 by Arunlakshana and Schild). The format is cell-based. The note with it: tested at concentrations between 2 x 10^-7 to 2x10^-5 mole/litre; for Kb: Cavia porcellus.

In the data set on human whole blood, `O=C(O)CCCC=CCC1C(OCc2ccc(-c3cccs3)cc2)CC(=O)C1N1CCOCC1` (racemic) [5f), [1α(Z),2β,5α]-(±)-7-[2-(4-Morpholinyl)-3-oxo-5-[4-(thien-2-yl)phenylmethoxy]cyclopentyl]-5-heptenoic acid] had a Kb of 44.7 nM.

`O=C(O)CCCC=CCC1C(OCc2ccc(Cc3ccccc3)cc2)CC(=O)C1N1CCOCC1` (racemic) [11b), 1α(Z),2β,5α]-(±)-7-[2-(4-Morpholinyl)-3-oxo-5-[[4-(phenylmethyl)phenyl]methoxy]cyclopentyl]-5-heptenoic acid] gave a Kb in the data set on human whole blood of 39.8 nM.

For `O=C(O)CCCC=CCC1C(OCc2ccc(Cc3ccccc3)cc2)CC(=O)C1N1CCCCC1` (racemic) [Example 11f), [1α(Z),2β,5α]-(±)-7-[3-Oxo-5-[4-(phenylmethyl)phenylmethoxy]-2-(1-piperidinyl)cyclopentyl]-5-heptenoic acid], the adverse effects result with dogs is on record as “no adverse effects”.

On to `Cc1ccc(-c2ccc(COC3CC(=O)C(N4CCOCC4)C3CC=CCCCC(=O)O)cc2)cc1` (racemic) [Example 5a), [1α(Z),2β,5α-(±)-7-[5-[[4'-Methyl(1,1'-biphenyl)-4-yl]methoxy]-2-(4-morpholinyl)-3-oxocyclopentyl]-5-heptenoic acid], for which the Kb in the data set with human whole blood is 15.8 nM.

`COc1ccc(-c2ccc(COC3CC(=O)C(N4CCOCC4)C3CC=CCCCC(=O)O)cc2)cc1` (racemic) [11a), [1α(Z),2β,5α]-(±)-7-[5-[[4'-Methoxy(1,1'-biphenyl)-4-yl]methoxy]-2-(4-morpholinyl)-3-oxocyclopentyl]-5-heptenoic acid] had a Kb with human whole blood of 15.8 nM. For the same compound, in the data set with dogs, the adverse effects entry was “no adverse effects”.

`COc1ccc(-c2csc(COC3CC(O)C(N4CCOCC4)C3CC=CCCCC(=O)O)c2)cc1` (racemic) [Example 10b), [1α(Z),2β,3α,5α]-(±)-7-[3-Hydroxy-5-[[4-(4-methoxyphenyl)thien-2-yl]methoxy]-2-(4-morpholinyl)cyclopentyl]-5-heptenoic acid] showed a Kb in the data set with guinea-pig lung of 1 nM.

`COc1ccc(-c2ccc(COC3CC(=O)C(N4CCCCC4)C3CC=CCCCC(=O)O)cc2)cc1` (racemic) [11e), [1α(Z),2β,5α]-(±)-7-[5-[[4'-Methoxy(1,1'biphenyl)-4-yl]methoxy]-3-oxo-2-(1-piperidinyl)cyclopentyl]-5-heptenoic acid]: the Kb in the data set with guinea-pig lung was 1.58 nM.

The term pA2 denotes a measure of antagonist potency on a negative log scale. Turning to `Cc1ccc(-c2ccc(COC3CC(=O)C(N4CCOCC4)C3CCCCCCC(=O)O)cc2)cc1` (racemic) [18a), (1α,2β,5α)-(±)-5-[[4'-Methyl(1,1'-biphenyl)-4-yl]methoxy]-2-(4-morpholinyl)-3-oxocyclopentaneheptanoic acid], the pA2 in the data set on guinea-pig lung turned out to be 8.6.

Compound `Cc1ccc(-c2ccc(COC3CC(=O)C(N4CCCCC4)C3CC=CCCCC(=O)O)cc2)cc1` (racemic) [11g), [1α(Z),2β,5α]-(±)-7-[5-[[4'-Methyl(1,1'-biphenyl)-4-yl]ntethoxy]-3-oxo-2-(1-piperidinyl)cyclopentyl]-5-heptenoic acid] showed a Kb with guinea-pig lung of 3.16 nM.

As for `O=C(O)CCCC=CCC1C(OCc2ccc(Cc3ccccc3)cc2)CC(=O)C1N1CCS(=O)(=O)CC1` (racemic) [11i), [1α(Z),2β,5α]-(±)-7-[3-Oxo-5-[4-(phenylmethyl)-phenylmethoxy]-2-(4-thiomorpholinyl)cyclopentyl]-5-heptenoic acid, S-dioxide], the Kb in the data set with guinea-pig lung was 3.16 nM.

For `O=C(O)CCCC=CCC1C(OCc2ccc(-c3ccc(-c4ccccc4)cc3)cc2)CC(=O)C1N1CCOCC1` (racemic) [Example 11c), [1α(Z),2β,5α]-(±)-7-[2-(4-Morpholinyl)-3-oxo-5-[[(1,1';4.1"-terphenyl)-4-yl]methoxy]cyclopentyl]-5-heptenoic acid], in the data set on dogs, the adverse effects result is listed as “no adverse effects”.

With `COc1ccc(-c2ccc(COC3CC(=O)C(N4CCOCC4)C3CCCCCCC(=O)O)cc2)cc1` (racemic) [18d), (1α,2β,5α)-(±)-5-[[-4'-Methoxy(1,1'-biphenyl)-4-yl]-2-(4-morpholinyl)-3-oxocyclopentaneheptanoic acid], the pA2 in the data set with guinea-pig lung is 8.9.

The values above are taken from patent publication EP0032432A1, “Prostanoid compounds and their preparation and pharmaceutical formulations” (GLAXO GROUP LIMITED, priority 1980, dated 1981).
